Results published in PubChem BioAssay AID330 (DTP/NCI, 2004).
Where “and” joins values, the source holds several entries; their conditions need not be identical. Equal values may be shown once. Inconclusive results and toxic doses are left out. Rule for the calls: active = survival T/C of 150% or more; inactive = T/C below 125% in these data.

Test system: P388 leukemia ip, CD2F1 mice, survival T/C
Assay: NCI In Vivo Anticancer Drug Screen. Data for tumor model P388 Leukemia (intraperitoneal) in CD2F1 (CDF1) mice
Details: endpoint: median survival time, higher = longer survival
How it was run: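 Mice carrying the transplanted tumor received test compound or vehicle. Survival was recorded in each group, and the value is the treated-group measurement divided by that of the vehicle-treated control group.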

[1] = dose: 50.0 mg/kg/injection, schedule: Q01DX005 (ip), vehicle: saline with Tween-80
[2] = dose: 100.0 mg/kg/injection, schedule: Q01DX005 (ip), vehicle: saline with Tween-80
[3] = dose: 200.0 mg/kg/injection, schedule: Q01DX005 (ip), vehicle: saline with Tween-80
[4] = dose: 50.0 mg/kg/injection, schedule: Q01DX009 (ip), vehicle: saline
[5] = dose: 100.0 mg/kg/injection, schedule: Q01DX009 (ip), vehicle: saline
[6] = dose: 200.0 mg/kg/injection, schedule: Q01DX009 (ip), vehicle: saline
[7] = dose: 60.0 mg/kg/injection, schedule: Q01DX005 (ip), vehicle: saline with Tween-80
[8] = dose: 120.0 mg/kg/injection, schedule: Q01DX005 (ip), vehicle: saline with Tween-80
[9] = dose: 240.0 mg/kg/injection, schedule: Q01DX005 (ip), vehicle: saline with Tween-80
[10] = dose: 25.0 mg/kg/injection, schedule: Q01DX009 (ip), vehicle: saline

Measured: T/C

C[n+]1ccc(C[n+]2ccccc2)c2ccccc21
inactive: dose: 50.0 mg/kg/injection, schedule: Q01DX005 (ip), vehicle: saline 104 % of control | dose: 100.0 mg/kg/injection, schedule: Q01DX005 (ip), vehicle: saline 100 % of control | dose: 200.0 mg/kg/injection, schedule: Q01DX005 (ip), vehicle: saline 96 % of control

O=C(C(=O)C(Br)Br)C(Br)Br
inactive: dose: 1.56 mg/kg/injection, schedule: Q01DX009 (ip), vehicle: DMSO 99 % of control | dose: 3.12 mg/kg/injection, schedule: Q01DX009 (ip), vehicle: DMSO 103 % of control | dose: 6.25 mg/kg/injection, schedule: Q01DX009 (ip), vehicle: DMSO 99 % of control

COC(=O)CC1(C(=O)OC)Oc2ccc(Br)cc2C(=O)N1c1cccc(Cl)c1Cl (configuration not stated)
inactive: [1] 100 % of control | [2] 91 % of control | [3] 100 % of control

CC(C)=CCN=c1ncn(CCC(N)C(=O)O)c2nc[nH]c12 (configuration not stated)
inactive: dose: 3.0 mg/kg/injection, schedule: Q01DX009 (ip), vehicle: Klucel (hydroxypropylcellulose) (HPC) 109 % of control | dose: 6.0 mg/kg/injection, schedule: Q01DX009 (ip), vehicle: Klucel (hydroxypropylcellulose) (HPC) 105 % of control | dose: 12.0 mg/kg/injection, schedule: Q01DX009 (ip), vehicle: Klucel (hydroxypropylcellulose) (HPC) 115 % of control | dose: 24.0 mg/kg/injection, schedule: Q01DX009 (ip), vehicle: Klucel (hydroxypropylcellulose) (HPC) 118 % of control | dose: 48.0 mg/kg/injection, schedule: Q01DX009 (ip), vehicle: Klucel (hydroxypropylcellulose) (HPC) 108 % of control

CCN1C(=O)CC(NC2CC(OC3C[C@](O)(C(C)=O)Cc4c(O)c5c(c(O)c43)C(=O)c3c(OC)cccc3C5=O)OC(C)C2O)C1=O (some centres not stated)
inactive: dose: 6.25 mg/kg/injection, schedule: Q04DX003 (ip), vehicle: water 115 % of control | dose: 12.5 mg/kg/injection, schedule: Q04DX003 (ip), vehicle: water 103 % of control | dose: 25.0 mg/kg/injection, schedule: Q04DX003 (ip), vehicle: water 105 % of control | dose: 50.0 mg/kg/injection, schedule: Q04DX003 (ip), vehicle: water 105 % of control

CN1CC(C(=O)O)=Nc2c1nc(N)[nH]c2=O
inactive: dose: 6.25 mg/kg/injection, schedule: Q01DX009 (ip), vehicle: saline with Tween-80 101 % of control | dose: 12.5 mg/kg/injection, schedule: Q01DX009 (ip), vehicle: saline with Tween-80 109 % of control | dose: 25.0 mg/kg/injection, schedule: Q01DX009 (ip), vehicle: saline with Tween-80 101 % of control

CCCCN1C(=O)C(=C/C=C/C=C2\Oc3ccccc3N2CCCS(=O)(=O)O)C(=O)N(CCCC)C1=S
inactive: dose: 60.0 mg/kg/injection, schedule: Q01DX005 (ip), vehicle: Klucel (hydroxypropylcellulose) (HPC) 106 % of control | dose: 120.0 mg/kg/injection, schedule: Q01DX005 (ip), vehicle: Klucel (hydroxypropylcellulose) (HPC) 106 % of control | dose: 240.0 mg/kg/injection, schedule: Q01DX005 (ip), vehicle: Klucel (hydroxypropylcellulose) (HPC) 106 % of control

COP(=O)(Cc1ccccc1O)OC
inactive: [4] 97 % of control | [5] 99 % of control | [6] 96 % of control

CC(=O)c1ccc(NN=NCCCl)cc1
inactive: dose: 12.5 mg/kg/injection, schedule: Q01DX009 (ip), vehicle: distilled water + Tween-80 98 % of control | dose: 25.0 mg/kg/injection, schedule: Q01DX009 (ip), vehicle: distilled water + Tween-80 100 % of control | dose: 50.0 mg/kg/injection, schedule: Q01DX009 (ip), vehicle: distilled water + Tween-80 104 % of control | dose: 100.0 mg/kg/injection, schedule: Q01DX009 (ip), vehicle: distilled water + Tween-80 104 % of control | dose: 200.0 mg/kg/injection, schedule: Q01DX009 (ip), vehicle: distilled water + Tween-80 107 % of control

C=C1C(=O)OC2/C=C(\C)C(O)C/C=C(/C)C(OC(=O)/C(C)=C\C)C(O)C12 (configuration not stated)
inactive: dose: 6125.0 micrograms/kg/injection, schedule: Q01DX005 (ip), vehicle: Klucel (hydroxypropylcellulose) (HPC) 110 % of control | dose: 12250.0 micrograms/kg/injection, schedule: Q01DX005 (ip), vehicle: Klucel (hydroxypropylcellulose) (HPC) 115 % of control | dose: 24500.0 micrograms/kg/injection, schedule: Q01DX005 (ip), vehicle: Klucel (hydroxypropylcellulose) (HPC) 109 % of control | dose: 49000.0 micrograms/kg/injection, schedule: Q01DX005 (ip), vehicle: Klucel (hydroxypropylcellulose) (HPC) 114 % of control

CCCCCCCC/C=C/CCCCCCCC(=O)NCCCN (tested in a mixture with another compound)
inactive: dose: 25.0 mg/kg/injection, schedule: Q04DX002 (ip), vehicle: saline 104 % of control | dose: 50.0 mg/kg/injection, schedule: Q04DX002 (ip), vehicle: saline 103 % of control

CCN1C2=NCCN2S(=O)(=O)c2ccccc21
inactive: [7] 96 % of control | [8] 97 % of control | [9] 97 % of control

CCCCCCC(=O)/C=C/c1cccc(OCOC)c1
inactive: dose: 50.0 mg/kg/injection, schedule: Q01DX009 (ip), vehicle: saline with Tween-80 87 % of control | dose: 100.0 mg/kg/injection, schedule: Q01DX009 (ip), vehicle: saline with Tween-80 113 % of control | dose: 200.0 mg/kg/injection, schedule: Q01DX009 (ip), vehicle: saline with Tween-80 103 % of control

CNC(=O)N(C)CN(C)C(=O)NC
inactive: dose: 50.0 mg/kg/injection, schedule: Q01DX009 (ip), vehicle: Klucel (hydroxypropylcellulose) (HPC) 100 % of control | dose: 100.0 mg/kg/injection, schedule: Q01DX009 (ip), vehicle: Klucel (hydroxypropylcellulose) (HPC) 106 % of control | dose: 200.0 mg/kg/injection, schedule: Q01DX009 (ip), vehicle: Klucel (hydroxypropylcellulose) (HPC) 107 % of control

CCC[CH2][Hg][O]C(C)=O
inactive: dose: 2.0 mg/kg/injection, schedule: Q01DX009 (ip), vehicle: other 95 % of control | dose: 3.0 mg/kg/injection, schedule: Q01DX009 (ip), vehicle: other 100 % of control | dose: 4.5 mg/kg/injection, schedule: Q01DX009 (ip), vehicle: other 113 % of control

S=c1nc[nH]c2c1ncn2C1CCCO1 (configuration not stated)
inactive: dose: 100.0 mg/kg/injection, schedule: Q04DX003 (ip), vehicle: saline with Tween-80 100 % of control | dose: 200.0 mg/kg/injection, schedule: Q04DX003 (ip), vehicle: saline with Tween-80 118 % of control

NCC(O)c1cccc(O)c1 (configuration not stated)
inactive: dose: 6.25 mg/kg/injection, schedule: Q01DX009 (ip), vehicle: saline 101 % of control and 92 % of control | dose: 12.5 mg/kg/injection, schedule: Q01DX009 (ip), vehicle: saline 101 % of control and 95 % of control | [10] 100 % of control

Cc1cc(C)c2cc(=O)oc-2c(C)c1
inactive: dose: 100.0 mg/kg/injection, schedule: Q01DX001 (ip), vehicle: Klucel (hydroxypropylcellulose) (HPC) 100 % of control | dose: 200.0 mg/kg/injection, schedule: Q01DX001 (ip), vehicle: Klucel (hydroxypropylcellulose) (HPC) 103 % of control | dose: 400.0 mg/kg/injection, schedule: Q01DX001 (ip), vehicle: Klucel (hydroxypropylcellulose) (HPC) 100 % of control

O=[N+]([O-])c1ccc(SCc2ccccc2)c2nonc12
inactive: dose: 12.5 mg/kg/injection, schedule: Q01DX009 (ip), vehicle: suspension in saline 111 % of control | [10] 94 % of control | dose: 25.0 mg/kg/injection, schedule: Q01DX009 (ip), vehicle: suspension in saline 106 % of control | [4] 100 % of control | dose: 50.0 mg/kg/injection, schedule: Q01DX009 (ip), vehicle: suspension in saline 113 % of control | [5] 94 % of control

CC(C)OCc1cn[nH]n1
inactive: [7] 100 % of control | [8] 97 % of control | [9] 103 % of control

COC(=O)CS(=O)(=O)CCCCCS(=O)(=O)CC(=O)OC
inactive: [4] 97 % of control | [5] 106 % of control | [6] 99 % of control

CC1(C)C/C(=N/NC(N)=S)C(=NO)/C(=N\NC(N)=S)C1
inactive: [7] 123 % of control | [8] 110 % of control | [9] 113 % of control

CS/C(=N/N=C/c1ccc2ccccc2n1)SS/C(=N/N=C\c1ccc2ccccc2n1)SC
inactive: [1] 88 % of control | [2] 91 % of control | [3] 104 % of control

CCOCCOc1nc(C)cc(C)c1C#N
inactive: [1] 102 % of control | [2] 105 % of control | [3] 96 % of control

O=C1NCN(c2ccccc2)C12CCNCC2
inactive: dose: 25.0 mg/kg/injection, schedule: Q04DX003 (ip), vehicle: saline sonified 109 % of control | dose: 50.0 mg/kg/injection, schedule: Q04DX003 (ip), vehicle: saline sonified 109 % of control | dose: 100.0 mg/kg/injection, schedule: Q04DX003 (ip), vehicle: saline sonified 95 % of control
